According to patent US12559465B2, “Substituted benzotriazinone metabolites of a GPR139 agonist” (TAKEDA PHARMACEUTICAL COMPANY LIMITED, priority 2020, dated 2026):

Tests used:
Type in all cases: in vitro ADME
[1] = target: T1, BSEP (Canis lupus familiaris, UniProt B8K1W2); assay: BSEP inhibition in membrane vesicles (dog)
T1 sequence (B8K1W2 1-1325): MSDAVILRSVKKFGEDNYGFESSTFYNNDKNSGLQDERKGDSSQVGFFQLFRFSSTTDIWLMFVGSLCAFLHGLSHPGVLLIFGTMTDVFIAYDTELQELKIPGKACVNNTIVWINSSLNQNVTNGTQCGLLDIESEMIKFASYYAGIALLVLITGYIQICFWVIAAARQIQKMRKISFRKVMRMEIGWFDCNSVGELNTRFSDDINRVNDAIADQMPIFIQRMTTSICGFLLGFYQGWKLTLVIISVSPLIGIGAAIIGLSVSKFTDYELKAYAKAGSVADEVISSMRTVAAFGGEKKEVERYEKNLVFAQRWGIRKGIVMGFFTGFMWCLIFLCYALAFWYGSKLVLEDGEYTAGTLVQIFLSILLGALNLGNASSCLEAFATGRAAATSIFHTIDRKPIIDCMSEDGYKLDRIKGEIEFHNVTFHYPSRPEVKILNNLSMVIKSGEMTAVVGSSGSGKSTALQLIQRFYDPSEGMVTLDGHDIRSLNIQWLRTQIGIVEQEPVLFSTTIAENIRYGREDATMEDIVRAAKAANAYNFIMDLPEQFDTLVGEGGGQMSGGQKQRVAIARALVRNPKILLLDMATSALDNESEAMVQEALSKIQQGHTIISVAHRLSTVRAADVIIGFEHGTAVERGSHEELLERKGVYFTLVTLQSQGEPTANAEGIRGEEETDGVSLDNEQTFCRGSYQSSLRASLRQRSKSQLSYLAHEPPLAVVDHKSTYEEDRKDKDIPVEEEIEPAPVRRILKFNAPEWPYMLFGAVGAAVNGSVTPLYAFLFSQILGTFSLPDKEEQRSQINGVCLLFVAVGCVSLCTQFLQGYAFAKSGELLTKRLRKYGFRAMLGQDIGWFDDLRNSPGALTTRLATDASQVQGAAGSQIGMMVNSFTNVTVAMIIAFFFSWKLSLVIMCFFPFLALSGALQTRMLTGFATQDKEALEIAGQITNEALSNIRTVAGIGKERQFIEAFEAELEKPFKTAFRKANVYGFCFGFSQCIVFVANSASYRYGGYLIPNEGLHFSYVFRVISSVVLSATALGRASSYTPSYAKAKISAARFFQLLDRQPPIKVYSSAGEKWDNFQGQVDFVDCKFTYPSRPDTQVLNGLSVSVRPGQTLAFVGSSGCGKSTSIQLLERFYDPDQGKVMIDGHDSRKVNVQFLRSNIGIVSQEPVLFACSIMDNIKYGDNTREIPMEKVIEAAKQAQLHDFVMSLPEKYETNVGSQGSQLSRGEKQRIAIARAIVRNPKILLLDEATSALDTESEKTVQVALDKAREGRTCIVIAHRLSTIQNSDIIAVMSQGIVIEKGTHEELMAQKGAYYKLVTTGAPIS
Protocol: (§1) Inhibition of BSEP (dog and human) and MRP2 (dog and human) by Compound A and Compound B were tested in membrane vesicles.

[2] = target: BSEP (Homo sapiens, UniProt O95342); assay: BSEP inhibition in membrane vesicles (human)
Protocol: as §1

[3] = target: MRP2 (Canis lupus familiaris, UniProt A0A8I3SCV5); assay: MRP2 inhibition in membrane vesicles (dog)
Protocol: as §1

[4] = target: MRP2 (Homo sapiens, UniProt Q92887); assay: MRP2 inhibition in membrane vesicles (human)
Protocol: as §1

[5] = target: T2, BSEP (Rattus norvegicus, UniProt O70127); assay: BSEP inhibition in membrane vesicles (rat)
T2 sequence (O70127 1-1321): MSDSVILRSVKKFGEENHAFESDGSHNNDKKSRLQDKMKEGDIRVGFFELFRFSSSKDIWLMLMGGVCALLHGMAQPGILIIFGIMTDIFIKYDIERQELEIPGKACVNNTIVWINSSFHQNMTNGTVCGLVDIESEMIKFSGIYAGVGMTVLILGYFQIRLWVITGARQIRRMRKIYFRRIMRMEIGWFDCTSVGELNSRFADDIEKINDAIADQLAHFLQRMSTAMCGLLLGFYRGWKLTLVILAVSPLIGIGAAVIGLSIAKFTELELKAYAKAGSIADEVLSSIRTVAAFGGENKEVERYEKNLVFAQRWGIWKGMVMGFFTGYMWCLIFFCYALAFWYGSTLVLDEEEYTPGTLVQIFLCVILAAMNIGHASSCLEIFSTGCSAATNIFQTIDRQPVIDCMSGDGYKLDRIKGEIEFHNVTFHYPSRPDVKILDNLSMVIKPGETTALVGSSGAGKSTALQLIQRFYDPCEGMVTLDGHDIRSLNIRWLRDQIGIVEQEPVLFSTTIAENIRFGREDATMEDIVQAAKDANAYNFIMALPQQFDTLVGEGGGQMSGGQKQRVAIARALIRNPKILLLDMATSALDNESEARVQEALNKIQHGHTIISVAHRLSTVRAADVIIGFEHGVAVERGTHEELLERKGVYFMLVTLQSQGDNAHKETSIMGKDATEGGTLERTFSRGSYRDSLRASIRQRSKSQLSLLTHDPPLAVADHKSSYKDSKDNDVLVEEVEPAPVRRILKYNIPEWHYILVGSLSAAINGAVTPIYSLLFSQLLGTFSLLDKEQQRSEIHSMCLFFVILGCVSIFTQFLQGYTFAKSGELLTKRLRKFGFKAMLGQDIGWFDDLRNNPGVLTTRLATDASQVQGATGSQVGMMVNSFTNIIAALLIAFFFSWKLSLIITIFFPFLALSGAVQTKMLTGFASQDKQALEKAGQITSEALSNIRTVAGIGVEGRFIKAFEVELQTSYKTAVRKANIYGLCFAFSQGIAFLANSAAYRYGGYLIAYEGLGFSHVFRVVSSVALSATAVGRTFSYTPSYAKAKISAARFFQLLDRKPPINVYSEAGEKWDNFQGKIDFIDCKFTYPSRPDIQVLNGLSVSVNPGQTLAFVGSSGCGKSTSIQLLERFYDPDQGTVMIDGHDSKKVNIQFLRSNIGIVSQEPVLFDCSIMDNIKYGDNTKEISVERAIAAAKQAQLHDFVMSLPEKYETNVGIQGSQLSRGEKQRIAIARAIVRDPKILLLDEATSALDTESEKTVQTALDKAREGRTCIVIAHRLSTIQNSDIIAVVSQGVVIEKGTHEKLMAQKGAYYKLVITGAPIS

[6] = target: MRP2 (Rattus norvegicus, UniProt Q63120); assay: MRP2 inhibition in membrane vesicles (rat)
[7] = target: MRP3 (Homo sapiens, UniProt O15438); assay: MRP3 inhibition (human)
[8] = target: T3, MRP4 (Homo sapiens, UniProt O15439); assay: MRP4 inhibition (human)
T3 sequence (O15439 1-1325): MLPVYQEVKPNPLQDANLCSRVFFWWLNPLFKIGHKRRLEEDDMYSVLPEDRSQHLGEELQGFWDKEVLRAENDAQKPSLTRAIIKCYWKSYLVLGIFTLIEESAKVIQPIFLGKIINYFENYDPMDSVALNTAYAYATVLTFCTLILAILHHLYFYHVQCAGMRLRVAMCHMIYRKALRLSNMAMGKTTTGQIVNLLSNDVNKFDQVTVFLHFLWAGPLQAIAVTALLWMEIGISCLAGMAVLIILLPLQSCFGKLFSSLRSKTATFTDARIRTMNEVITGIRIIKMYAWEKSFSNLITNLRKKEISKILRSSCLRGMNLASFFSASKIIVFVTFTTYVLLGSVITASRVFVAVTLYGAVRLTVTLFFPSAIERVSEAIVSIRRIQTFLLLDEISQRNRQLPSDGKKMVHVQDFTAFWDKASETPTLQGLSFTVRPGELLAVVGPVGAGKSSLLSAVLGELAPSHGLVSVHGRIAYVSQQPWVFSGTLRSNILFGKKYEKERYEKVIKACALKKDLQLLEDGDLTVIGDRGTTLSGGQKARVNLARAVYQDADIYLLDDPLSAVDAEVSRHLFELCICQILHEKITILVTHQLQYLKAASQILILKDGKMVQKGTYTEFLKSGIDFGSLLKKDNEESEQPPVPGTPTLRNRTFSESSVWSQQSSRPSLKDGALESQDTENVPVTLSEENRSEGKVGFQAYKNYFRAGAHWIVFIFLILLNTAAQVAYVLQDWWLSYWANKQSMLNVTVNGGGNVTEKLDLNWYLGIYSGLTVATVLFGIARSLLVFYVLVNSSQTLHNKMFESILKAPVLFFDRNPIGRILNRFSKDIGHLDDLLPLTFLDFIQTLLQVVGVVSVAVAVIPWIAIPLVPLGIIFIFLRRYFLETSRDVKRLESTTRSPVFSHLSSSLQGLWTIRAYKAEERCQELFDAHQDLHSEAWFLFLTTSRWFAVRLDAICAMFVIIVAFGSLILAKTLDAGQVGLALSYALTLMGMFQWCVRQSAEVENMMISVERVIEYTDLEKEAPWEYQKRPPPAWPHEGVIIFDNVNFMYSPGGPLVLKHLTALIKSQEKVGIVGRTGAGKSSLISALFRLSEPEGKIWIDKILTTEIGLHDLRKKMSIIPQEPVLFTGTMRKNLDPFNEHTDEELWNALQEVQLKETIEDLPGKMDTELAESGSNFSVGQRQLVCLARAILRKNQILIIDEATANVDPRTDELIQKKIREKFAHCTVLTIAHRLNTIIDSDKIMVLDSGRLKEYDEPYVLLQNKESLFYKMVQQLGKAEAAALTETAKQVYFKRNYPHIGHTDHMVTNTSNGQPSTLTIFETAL

Sequence of BSEP (Homo sapiens, UniProt O95342) (O95342 whole entry): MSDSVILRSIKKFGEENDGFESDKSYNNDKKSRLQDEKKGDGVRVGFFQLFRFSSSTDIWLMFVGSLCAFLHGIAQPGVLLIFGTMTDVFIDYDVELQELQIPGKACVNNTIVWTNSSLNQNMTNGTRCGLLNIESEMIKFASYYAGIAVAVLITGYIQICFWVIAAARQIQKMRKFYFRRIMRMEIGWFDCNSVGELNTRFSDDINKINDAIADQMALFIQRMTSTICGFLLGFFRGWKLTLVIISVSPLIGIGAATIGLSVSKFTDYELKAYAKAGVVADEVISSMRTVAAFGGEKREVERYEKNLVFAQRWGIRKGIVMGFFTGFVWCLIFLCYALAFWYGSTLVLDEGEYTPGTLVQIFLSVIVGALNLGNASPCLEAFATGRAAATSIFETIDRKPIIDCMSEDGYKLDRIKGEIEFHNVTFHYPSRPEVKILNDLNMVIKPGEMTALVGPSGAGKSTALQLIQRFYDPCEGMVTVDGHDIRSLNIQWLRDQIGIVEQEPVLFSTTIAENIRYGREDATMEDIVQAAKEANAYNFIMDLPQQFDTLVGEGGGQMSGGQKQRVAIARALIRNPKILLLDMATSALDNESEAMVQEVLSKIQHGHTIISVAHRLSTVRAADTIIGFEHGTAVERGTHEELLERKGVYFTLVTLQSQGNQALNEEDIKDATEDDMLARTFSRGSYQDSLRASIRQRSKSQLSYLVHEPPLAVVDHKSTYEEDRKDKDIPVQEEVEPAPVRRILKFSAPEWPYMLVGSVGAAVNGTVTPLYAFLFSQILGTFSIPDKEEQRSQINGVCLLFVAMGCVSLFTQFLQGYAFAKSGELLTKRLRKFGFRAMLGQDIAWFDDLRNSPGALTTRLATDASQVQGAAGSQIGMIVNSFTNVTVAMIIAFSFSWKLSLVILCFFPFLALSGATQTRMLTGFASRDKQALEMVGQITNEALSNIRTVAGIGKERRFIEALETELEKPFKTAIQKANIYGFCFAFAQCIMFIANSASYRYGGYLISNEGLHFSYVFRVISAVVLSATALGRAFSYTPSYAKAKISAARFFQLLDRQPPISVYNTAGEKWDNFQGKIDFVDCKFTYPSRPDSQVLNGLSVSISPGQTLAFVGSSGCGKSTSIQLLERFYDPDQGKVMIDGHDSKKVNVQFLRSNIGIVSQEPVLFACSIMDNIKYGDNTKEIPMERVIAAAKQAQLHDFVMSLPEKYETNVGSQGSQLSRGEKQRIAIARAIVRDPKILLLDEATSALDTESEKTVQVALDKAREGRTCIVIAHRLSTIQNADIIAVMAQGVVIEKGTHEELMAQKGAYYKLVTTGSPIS
Sequence of MRP2 (Homo sapiens, UniProt Q92887) (Q92887 whole entry): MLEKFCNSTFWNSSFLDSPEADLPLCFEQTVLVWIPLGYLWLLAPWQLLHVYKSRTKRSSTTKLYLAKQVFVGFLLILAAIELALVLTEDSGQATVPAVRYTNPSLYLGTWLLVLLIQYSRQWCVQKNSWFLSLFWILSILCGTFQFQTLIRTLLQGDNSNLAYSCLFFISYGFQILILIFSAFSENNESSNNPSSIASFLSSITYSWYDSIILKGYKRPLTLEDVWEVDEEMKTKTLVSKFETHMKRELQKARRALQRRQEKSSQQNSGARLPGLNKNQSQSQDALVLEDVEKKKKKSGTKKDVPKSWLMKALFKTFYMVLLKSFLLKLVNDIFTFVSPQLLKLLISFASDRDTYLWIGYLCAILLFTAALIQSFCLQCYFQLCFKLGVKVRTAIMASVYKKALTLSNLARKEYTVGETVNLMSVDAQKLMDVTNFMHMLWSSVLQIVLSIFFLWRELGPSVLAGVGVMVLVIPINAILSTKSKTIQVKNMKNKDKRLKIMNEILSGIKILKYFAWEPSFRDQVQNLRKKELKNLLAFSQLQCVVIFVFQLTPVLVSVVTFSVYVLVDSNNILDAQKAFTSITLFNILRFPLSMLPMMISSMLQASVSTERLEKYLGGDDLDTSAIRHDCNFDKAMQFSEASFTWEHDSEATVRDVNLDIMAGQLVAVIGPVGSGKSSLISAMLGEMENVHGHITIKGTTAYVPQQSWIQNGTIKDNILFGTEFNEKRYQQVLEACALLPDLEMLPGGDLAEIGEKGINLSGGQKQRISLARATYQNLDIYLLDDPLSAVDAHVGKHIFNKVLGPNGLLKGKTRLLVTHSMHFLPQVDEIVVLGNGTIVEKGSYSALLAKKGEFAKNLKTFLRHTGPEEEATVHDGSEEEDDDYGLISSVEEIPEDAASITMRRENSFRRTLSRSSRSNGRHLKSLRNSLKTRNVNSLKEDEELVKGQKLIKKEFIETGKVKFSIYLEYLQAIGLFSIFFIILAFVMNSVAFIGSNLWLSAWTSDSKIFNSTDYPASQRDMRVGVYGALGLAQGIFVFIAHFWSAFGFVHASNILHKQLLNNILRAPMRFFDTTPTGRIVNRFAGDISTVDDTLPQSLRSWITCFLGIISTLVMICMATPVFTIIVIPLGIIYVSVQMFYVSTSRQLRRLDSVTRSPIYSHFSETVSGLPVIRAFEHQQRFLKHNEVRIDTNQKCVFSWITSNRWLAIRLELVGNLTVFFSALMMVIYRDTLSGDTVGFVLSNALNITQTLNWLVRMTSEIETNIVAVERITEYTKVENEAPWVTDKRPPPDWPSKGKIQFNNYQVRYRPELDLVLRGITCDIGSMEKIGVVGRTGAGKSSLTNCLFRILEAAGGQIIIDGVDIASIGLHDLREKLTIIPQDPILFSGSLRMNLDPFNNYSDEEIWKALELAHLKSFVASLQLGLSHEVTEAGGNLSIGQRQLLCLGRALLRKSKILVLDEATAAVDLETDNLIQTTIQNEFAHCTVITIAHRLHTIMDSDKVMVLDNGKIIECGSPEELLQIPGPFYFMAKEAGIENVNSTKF
Sequence of MRP2 (Canis lupus familiaris, UniProt A0A8I3SCV5) (A0A8I3SCV5 1-1544): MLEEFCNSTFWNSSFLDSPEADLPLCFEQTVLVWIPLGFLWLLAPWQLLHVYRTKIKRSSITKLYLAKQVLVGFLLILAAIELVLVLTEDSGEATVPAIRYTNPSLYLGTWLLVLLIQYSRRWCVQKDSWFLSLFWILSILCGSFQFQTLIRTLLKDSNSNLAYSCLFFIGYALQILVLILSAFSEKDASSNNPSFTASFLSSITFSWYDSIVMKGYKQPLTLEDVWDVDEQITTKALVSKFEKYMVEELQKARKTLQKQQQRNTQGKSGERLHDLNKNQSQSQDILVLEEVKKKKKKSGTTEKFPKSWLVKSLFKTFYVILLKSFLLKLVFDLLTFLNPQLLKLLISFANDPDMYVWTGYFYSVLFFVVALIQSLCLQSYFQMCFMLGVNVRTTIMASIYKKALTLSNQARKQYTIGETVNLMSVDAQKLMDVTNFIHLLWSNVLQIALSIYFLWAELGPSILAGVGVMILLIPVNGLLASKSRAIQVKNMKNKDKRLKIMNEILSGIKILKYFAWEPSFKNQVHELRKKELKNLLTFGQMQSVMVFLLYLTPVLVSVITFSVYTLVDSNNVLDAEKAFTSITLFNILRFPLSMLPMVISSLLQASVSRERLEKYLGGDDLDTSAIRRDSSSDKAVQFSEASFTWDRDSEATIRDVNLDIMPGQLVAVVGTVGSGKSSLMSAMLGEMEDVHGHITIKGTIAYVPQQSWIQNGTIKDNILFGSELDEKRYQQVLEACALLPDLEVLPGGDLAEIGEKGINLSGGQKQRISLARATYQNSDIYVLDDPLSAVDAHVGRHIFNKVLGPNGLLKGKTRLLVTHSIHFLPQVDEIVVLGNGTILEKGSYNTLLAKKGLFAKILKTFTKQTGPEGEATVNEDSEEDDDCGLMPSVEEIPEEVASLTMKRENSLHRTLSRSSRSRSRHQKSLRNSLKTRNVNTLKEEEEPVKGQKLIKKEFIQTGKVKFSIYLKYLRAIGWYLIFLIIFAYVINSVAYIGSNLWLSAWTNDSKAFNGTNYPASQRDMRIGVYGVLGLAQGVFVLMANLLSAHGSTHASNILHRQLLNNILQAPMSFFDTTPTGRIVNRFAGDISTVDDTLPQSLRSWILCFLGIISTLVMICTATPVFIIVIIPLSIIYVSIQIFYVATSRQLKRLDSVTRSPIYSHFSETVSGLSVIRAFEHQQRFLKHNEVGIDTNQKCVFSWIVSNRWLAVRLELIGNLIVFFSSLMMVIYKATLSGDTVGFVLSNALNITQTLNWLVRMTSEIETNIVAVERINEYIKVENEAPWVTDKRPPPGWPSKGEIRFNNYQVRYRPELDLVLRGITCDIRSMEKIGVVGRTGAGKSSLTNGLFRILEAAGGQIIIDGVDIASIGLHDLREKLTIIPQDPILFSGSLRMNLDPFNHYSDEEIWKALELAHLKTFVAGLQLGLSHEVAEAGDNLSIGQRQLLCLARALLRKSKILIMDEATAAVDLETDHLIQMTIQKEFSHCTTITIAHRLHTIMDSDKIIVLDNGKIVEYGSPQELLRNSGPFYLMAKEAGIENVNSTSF

Row | IC50 [3] [µM] | IC50 [4] [µM] | IC50 [6] [µM] | IC50 [7] [µM] | IC50 [8] [µM] | SMILES | IC50 [1] [µM] | BSEP inhibition ([1]; result in words) | IC50 [2] [µM] | BSEP inhibition ([2]; result in words) | IC50 [5] [µM]
1 | 1.8 | 83 | – | – | – | C[C@H](NC(=O)Cn1nnc2ccc(O[C@@H]3O[C@H](C(=O)O)[C@@H](O)[C@H](O)[C@H]3O)cc2c1=O)c1ccc(OC(F)(F)F)cc1 [Compound B, (2S,3S,4S,5R,6S)-3,4,5-trihydroxy-6-((4-oxo-3-(2-oxo-2-(((S)-1-(4-(trifluoromethoxy)phenyl)ethyl)amino)ethyl)-3,4-dihydrobenzo[d][1,2,3]triazin-6-yl)oxy)tetrahydro-2H-pyran-2-carboxylic acid] | > 200 | not identified | > 200 | not identified | –
2 | > 200 | > 200 | > 200 | > 200 | > 200 | C[C@H](NC(=O)Cn1nnc2ccccc2c1=O)c1ccc(OC(F)(F)F)cc1 [Compound A, (S)-2-(4-oxobenzo[d][1,2,3]triazin-3(4H)-yl)-N-(1-(4-(trifluoromethoxy)phenyl)ethyl)acetamide] | 72.3 | – | > 200 | – | > 200
